According to publication PMC7203344, “Sirtuin 1 Inhibiting Thiocyanates (S1th)—A New Class of Isotype Selective Inhibitors of NAD^+ Dependent Lysine Deacetylases” (Frontiers in Oncology, 2020):

Experiments:
[1] = biological target: T1, human Sirt5 (Homo sapiens, UniProt Q9NXA8); assay: Homogeneous ZKsA-based fluorescence assay for Sirt5; assay type: biochemical; conditions: inhibition tested @ 10 μM
T1 construct: Recombinant human Sirt5_37−310 was purchased readily in Tris Buffer; purchased Enzo Life Sciences (NY, USA)
T1 sequence (Q9NXA8 37-310): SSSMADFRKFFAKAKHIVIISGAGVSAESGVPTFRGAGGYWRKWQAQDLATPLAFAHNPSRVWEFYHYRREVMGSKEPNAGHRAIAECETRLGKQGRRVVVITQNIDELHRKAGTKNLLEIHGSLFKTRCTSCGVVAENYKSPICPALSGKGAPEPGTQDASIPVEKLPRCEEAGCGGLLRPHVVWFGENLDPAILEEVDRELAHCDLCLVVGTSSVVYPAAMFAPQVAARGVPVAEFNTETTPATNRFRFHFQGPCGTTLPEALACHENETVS
Experimental: (§1) Recombinant human Sirt5_37−310 was purchased readily in Tris Buffer [25 mM Tris, 100 mM NaCl, 5 mM DTT, 10% glycerol (v/v)] from Enzo Life Sciences (NY, USA). Human Sirt3_118−395 was expressed and purified as described previously ([54]). For expression of human Sirt1_134−747 and Sirt2_56−356 chemically competent cells of E. coli BL21 Star (DE3) were transformed with the expression vectors pET30S-hSirt1_134−747 or pET30S-hSirt2_56−356. Bacteria were grown at 37°C in 2×YT medium supplemented with 50 μg·mL^−1 of kanamycin to an OD600 of 0.6. Then isopropyl-β-D-1-thiogalactopyranoside (IPTG) was added to a final concentration of 1 mM to induce gene expression. After further cultivation at 20°C for 12 h, the cells were harvested by centrifugation for 15 min at 5,000 g. The cells were resuspended in lysis buffer [100 mM Tris/HCl buffer at pH 8.0, 150 mM NaCl and 10% (v/v) glycerol] and disrupted by ultrasonication (Branson Digital Sonifier 250) at 70% amplitude for 10 min (3 s working, 10 s pause). The crude extract was cleared by centrifugation at 100,000 g for 1 h, and the supernatant was loaded onto a Strep-Tactin Superflow cartridge (5 ml bed volume, IBA Lifescience, Germany). Target proteins were eluted with lysis buffer containing 5 mM D-Desthiobiotin (IBA Lifescience, Germany) and further separated by size-exclusion chromatography (Superdex S200 26/60, GE Healthcare, IL, USA) equilibrated in Tris/HCl buffer (20 mM, 150 mM NaCl, pH 8.0). Pure protein was concentrated by ultrafiltration, flash-frozen in liquid nitrogen and stored at −80°C until further use. Identity as well as purity were verified by SDS-PAGE ([55]) and protein concentration was determined by the bicinchoninic acid (BCA) method, using bovine serum albumin (BSA) as a standard ([56]). Deacetylase activity was confirmed to be NAD^+-dependent and could be inhibited with the physiological sirtuin inhibitor nicotinamide.
Inhibition of Sirt5 was measured using a general procedure described before with small modifications ([58]). Sirt5 was purchased from Enzo Life Science (NY, USA) and used as received. Z-Lys(succ)-aminomethyl coumarin (ZKsA) was used as a substrate for Sirt5 mediated desuccinylation. In black 384-well non-binding plates (Greiner Bio-One, Monroe, NC) Sirt5 was mixed with 2 μL of ZKsA (1 mM stock solution in assay buffer [(50 mM Tris·HCl, 137 mM NaCl, 2.7 mM KCl, 1 mM MgCl2, pH 8.0, and 0.1% PEG8000), 100 μM final assay concentration], 1 μL of Inhibitor dissolved in DMSO or DMSO as a control [final DMSO concentration 5% (v/v)], 2 μL NAD^+ (5 mM stock solution in assay buffer, final assay concentration 500 μM) and filled up to a total volume of 20 μL with assay buffer. The mixture was incubated for 1 h at 37°C and 140 rpm before 4 μL of trypsin solution (50 mM Tris, 100 mM NaCl, pH 8.0, 6 mg/mL trypsin buffer, 1 mg/mL final assay concentration) was added to stop the enzymatic reaction. After 2 min of incubation at 37°C and 140 rpm fluorescence intensity was detected as described above. Sirt5 concentration was adjusted to 15–30% substrate conversion. A negative control without enzyme and a positive control containing AMC instead of ZKsA were performed as well. Inhibition was calculated in % in relation to a DMSO control and was determined in triplicates.

[2] = biological target: T2, human Sirt3 (Homo sapiens, UniProt Q9NTG7); assay: Homogeneous ZMAL-based fluorescence assay, Sirt3; assay type: biochemical; conditions: 4th round
T2 construct: Human Sirt3_118−395 was expressed and purified as described previously; made in house
T2 sequence (Q9NTG7 118-395): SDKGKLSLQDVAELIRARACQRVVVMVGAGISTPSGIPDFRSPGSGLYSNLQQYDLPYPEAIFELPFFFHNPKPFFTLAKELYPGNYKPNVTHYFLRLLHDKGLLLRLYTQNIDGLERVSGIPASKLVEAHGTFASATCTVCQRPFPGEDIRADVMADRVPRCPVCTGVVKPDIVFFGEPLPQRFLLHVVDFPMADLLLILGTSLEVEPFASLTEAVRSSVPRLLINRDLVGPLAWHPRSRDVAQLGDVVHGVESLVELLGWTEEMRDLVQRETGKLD
Experimental: as §1
All compounds were tested in the trypsin-coupled high-throughput ZMAL-assay in black 96-well plates (OptiPlateTM−96F, black, 96 well, Pinch bar design, PerkinElmer, USA), using ZMAL (Z-Lys(acetyl)-AMC) as a substrate ([57]). Sirt1_134−747, Sirt2_56−356, and Sirt3_118−395 were mixed with 5 μL substrate (10.5 μM final assay concentration, diluted from a […] stock in DMSO) and 3 μL Inhibitor in DMSO at various concentrations or DMSO as a control [final DMSO concentration 5% (v/v)]. The mixture was supplemented with assay buffer (50 mM Tris/HCl, 137 mM NaCl, 2.7 mM KCl, 1 mM MgCL2, pH 8.0) to a total volume of 55 μL. Enzyme concentration was adjusted to get a final conversion of 20–30%. Addition of 5 μL NAD^+ (6 mM in assay buffer, final assay concentration of 500 μM) initiated the catalytic reaction and the plates were incubated at 37°C for 4 h with agitation at 140 rpm. The catalytic reaction was stopped by addition of 60 μL stop solution [50 mM Tris, 100 mM NaCl, 6.7% (V/V) DMSO, 5.5 U/μL trypsin, 8 μM nicotinamide, pH 8.0]. The plate was again incubated at 37°C and 140 rpm for 20 min to release free AMC from the deacetylated substrate by trypsin digestion. Afterwards, fluorescence intensity was measured in a microplate reader (λEx = 390 nm, λEm = 460 nm, BMG POLARstar Optima, BMG Labtech, Germany). An enzyme-free blank control and a 100% conversion control containing AMC instead of ZMAL were measured in addition. Inhibition was calculated in % in relation to a DMSO control after blank signal subtraction and IC50 values were determined using a non-linear regression to fit the dose-response curve with OriginPro 9G (OriginLab, USA). Pre-tests as well as IC50 determination was carried out at least twice in duplicates.

SMILES	inhibition at 10 µM [1] [%]	inhibition at 50 µM [2] [%]
N#CSc1cc(SC#N)c(N)nc1N [PR-619, reference compound]	28	< 10
N#CSc1cccc(NC(=O)[C@H]2CC=CC[C@H]2C(=O)O)c1 [S1th 10]	< 10	< 10
CCCCNC(=O)Nc1cccc(SC#N)c1 [S1th 11]	< 10	< 10
COc1ccc(SC#N)cc1OCC(=O)N(CCC#N)CCC#N [S1th 12]	< 10	< 10
N#CSc1cccc(NS(=O)(=O)c2ccc3c(c2)OCCO3)c1 [S1th 13]	< 10	< 10
